One assay has as its target shFcRn binding to HSA (Homo sapiens, UniProt P55899). Kind of assay: SPR screening of FcRn binding peptides for inhibition of shFcRn binding to immobilized HSA. The conditions noted are these: 14 uM peptide, 5 uM shFcRn, pH 6. As to the method:
Unreacted sites were then capped by injecting a solution of ethanolamine over the chip surface. A reference flow cell was activated with EDC/NHS and then blocked with ethanolamine.
Samples were injected over the chip for 3 minutes at 20 uL/min followed by a 2.5 minute dissociation phase.

Another assay deals with FcRn (Homo sapiens, UniProt P55899). Kind of assay: Competition for albumin or IgG binding to FcRn. Further details: Soluble human FcRn was expressed and purified by Biogen-Idec as previously described (29). The conditions noted are these: for competition with IgG or albumin for the FcRn binding site: competition experiments / SPR. An excerpt:
Peptide phage libraries, obtained from Dyax Corp, were screened against biotinylated soluble human FcRn bound to streptavidin beads, using 3 rounds of sequential pH 6.0 binding and pH 7.5 elution/amplification protocols. […] Peptide SYN514 was utilized during a 2nd peptide phage screen to occupy this site on FcRn prior to the addition of the phage libraries, and to identify albumin-competitive sequences. This strategy uncovered the albumin-competitive peptide, SYN571, and through structure-activity relationships, the shorter sequence SYN1753 (Ac-[…]-CONH2 (SEQ ID NO: 1) (disulfide) which bound to shFcRn with equivalent affinity as determined by SPR.

Another assay deals with T1, soluble human FcRn (Homo sapiens, UniProt P55899).
T1 construct: Soluble human FcRn was expressed and purified by Biogen-Idec as previously described (29)
Kind of assay: SPR (Biacore) affinity of peptides for immobilized soluble human FcRn. The assay is classed as binding. As to the method:
SPR analyses were conducted using a Biacore 3000 or T100 instrument. Research-grade CM5 sensor chips and all coupling reagents for immobilization were purchased from Biacore. All proteins were cross-linked to the dextran surface of a CM5 sensor chip by standard amine coupling chemistry as recommended by Biacore. […] Binding experiments were performed at pH 6.0 or 7.4 using 50 mM phosphate, 100 mM sodium chloride and 0.01% surfactant P20. […] Bound albumin protein was then allowed to dissociate from the chip for 5 minutes with running buffer. Any remaining albumin was removed from the chip with a 60 second injection (2 cycles) of pH 8.0 Tris-HCl regeneration buffer (1 M Tris pH 8.0) at 25 μL/min flow rate. The binding responses recorded near the end of the association phase were plotted as a function of concentration. Equilibrium dissociation constants (KD), were derived from sensorgrams using the 1:1 binding model of BIAevaluation software 4.1.

The mark [1] stands for this setting: Table 1, pH 6, shFcRn immobilized on the sensor chip, steady state fit, read-out: Kd, pH 6** Biacore.

Values joined by “and” are separate entries in the source; they are usually repeats but may differ in a detail not shown here. Equal entries are not always repeated. “Also recorded” adds a separate entry of the source. Where two headings read alike, the source gives them in different places. Bridge positions count the residues as written; N and C are the ends. Peptide text beside a SMILES is read from it.

Chain of FcRn (P55899 24-297 limits assumed): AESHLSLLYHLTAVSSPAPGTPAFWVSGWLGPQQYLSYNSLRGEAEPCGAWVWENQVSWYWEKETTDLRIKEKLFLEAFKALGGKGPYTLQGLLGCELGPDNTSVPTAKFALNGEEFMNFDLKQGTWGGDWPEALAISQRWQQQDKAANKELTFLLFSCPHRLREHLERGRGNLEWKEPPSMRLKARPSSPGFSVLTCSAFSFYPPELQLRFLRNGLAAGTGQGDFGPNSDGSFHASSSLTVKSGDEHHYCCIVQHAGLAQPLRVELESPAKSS
Chain of FcRn (P61769 21-119 partner): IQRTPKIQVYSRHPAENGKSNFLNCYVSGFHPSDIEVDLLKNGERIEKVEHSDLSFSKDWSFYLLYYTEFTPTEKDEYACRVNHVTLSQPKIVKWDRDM
T1 sequence (P55899 24-297 limits assumed): as the sequence (P55899 24-297 limits assumed) above
T1 sequence (P61769 21-119 partner): as the sequence (P61769 21-119 partner) above
Chain of shFcRn binding to HSA (P55899 24-297 limits assumed): as the sequence (P55899 24-297 limits assumed) above
Chain of shFcRn binding to HSA (P61769 21-119 partner): as the sequence (P61769 21-119 partner) above

With `CC(=O)N[C@@H](C)C(=O)NCC(=O)N[C@@H](CCCNC(=N)N)C(=O)N[C@@H](Cc1ccc(O)cc1)C(=O)N[C@@H](Cc1ccccc1)C(=O)N[C@H]1CSSC[C@@H](C(=O)N[C@@H](CCC(=O)O)C(=O)N[C@@H](CCC(=O)O)C(=O)N[C@H](C(=O)NCC(=O)N[C@H](C(=O)NCC(=O)NCC(=O)NCC(=O)N[C@@H](CCCCN)C(N)=O)[C@@H](C)O)C(C)C)NC(=O)[C@H](Cc2c[nH]c3ccccc23)NC(=O)CNC(=O)[C@H](Cc2c[nH]cn2)NC(=O)[C@H](CCCCN)NC(=O)[C@H](Cc2c[nH]c3ccccc23)NC(=O)[C@H](CCCCN)NC(=O)[C@H]([C@@H](C)O)NC1=O` [SYN571] (Ac-AGRYFCTKWKHGWCEEVGTGGGK-NH2; disulfide 6-14), at shFcRn binding to HSA, the “block of shFcRn binding to immobilized HSA” value is “completely block”. The “competition with IgG or albumin for the FcRn binding site” value (“competition with IgG or albumin” for short) at FcRn was “albumin-competitive; also recorded: inhibit shFcRn:albumin interactions, but not those of IgG: shFcRn”. For the same compound, on soluble human FcRn (Table 1), the “Kd Ratio 7.4/6.0” value amounted to 29. Moreover, the Kd at soluble human FcRn (setting [1]) was 0.45 µM and 0.5 µM; at soluble human FcRn (Table 1, pH 7.4, shFcRn immobilized, read-out: Kd, pH 7.4 Biacore), 13.1 µM.

Turning to `CSCC[C@H](NC(=O)[C@@H](NC(C)=O)C(C)C)C(=O)N[C@@H](Cc1c[nH]cn1)C(=O)N[C@H]1CSSC[C@@H](C(=O)N[C@@H](CCC(=O)O)C(=O)N[C@@H](Cc2ccc(O)cc2)C(=O)N[C@H](C(N)=O)C(C)C)NC(=O)[C@H](CCCNC(=N)N)NC(=O)[C@H](Cc2ccccc2)NC(=O)[C@H](CCC(=O)O)NC(=O)[C@H](CCC(=O)O)NC(=O)[C@H](CC(=O)O)NC(=O)[C@H](Cc2c[nH]c3ccccc23)NC(=O)[C@H](Cc2ccccc2)NC1=O` [SYN1383] (Ac-VMHCFWDEEFRCEYV-NH2; disulfide 4-12 (inferred)), the “block of shFcRn binding to immobilized HSA” value at shFcRn binding to HSA was “not able to block the binding of shFcRn to HSA”. In addition, the “Competition for albumin or IgG binding to FcRn” value on FcRn (Table 3) is on record as “none”. Further, the “competition with IgG or albumin” value on FcRn is “not been shown to be competitive with IgG or any other proteins; also recorded: does not block IgG binding to FcRn; also recorded: non-IgG, non-albumin competitive”. Also, the “Kd Ratio 7.4/6.0” value on soluble human FcRn (Table 2) is reported as 34. Besides, the Kd at soluble human FcRn (Table 2, pH 6, immobilized shFcRn, data fit steady state or 2 site, read-out: Kd, pH 6** Biacore) stood at 0.032 µM; on soluble human FcRn (Table 2, pH 7.4, data only 100 uM, therefore Kd may be higher, read-out: Kd, pH 7.4 Biacore), 1.1 µM. For the compound `CC(=O)N[C@@H](CCCNC(=N)N)C(=O)N[C@@H](Cc1ccc(O)cc1)C(=O)N[C@@H](Cc1ccccc1)C(=O)N[C@H]1CSSC[C@@H](C(=O)N[C@@H](CCC(=O)O)C(=O)N[C@@H](CCC(=O)O)C(=O)N[C@H](C(N)=O)C(C)C)NC(=O)[C@H](Cc2c[nH]c3ccccc23)NC(=O)CNC(=O)[C@H](Cc2c[nH]cn2)NC(=O)[C@H](C)NC(=O)[C@H](Cc2c[nH]c3ccccc23)NC(=O)[C@H](CCCCN)NC(=O)[C@H]([C@@H](C)O)NC1=O` [SYN1548] (Ac-RYFCTKWAHGWCEEV-NH2; disulfide 4-12 (inferred)), the Kd on soluble human FcRn (setting [1]) came to 9.3 µM.

In the case of `CC(=O)N[C@@H](CCCNC(=N)N)C(=O)N[C@@H](Cc1ccc(O)cc1)C(=O)N[C@@H](Cc1ccccc1)C(=O)N[C@H]1CSSC[C@@H](C(=O)N[C@@H](CCC(=O)O)C(=O)N[C@@H](CCC(=O)O)C(=O)N[C@H](C(N)=O)C(C)C)NC(=O)[C@H](C)NC(=O)CNC(=O)[C@H](Cc2c[nH]cn2)NC(=O)[C@H](CCCCN)NC(=O)[C@H](Cc2c[nH]c3ccccc23)NC(=O)[C@H](CCCCN)NC(=O)[C@H]([C@@H](C)O)NC1=O` [SYN1551] (Ac-RYFCTKWKHGACEEV-NH2; disulfide 4-12), the Kd at soluble human FcRn (setting [1]) is above 200 µM.

`CC(=O)N[C@@H](CCCNC(=N)N)C(=O)N[C@@H](Cc1ccc(O)cc1)C(=O)N[C@@H](Cc1ccccc1)C(=O)N[C@H]1CSSC[C@@H](C(=O)N[C@@H](CCC(=O)O)C(=O)N[C@@H](CCC(=O)O)C(=O)N[C@@H](C)C(N)=O)NC(=O)[C@H](Cc2c[nH]c3ccccc23)NC(=O)CNC(=O)[C@H](Cc2c[nH]cn2)NC(=O)[C@H](CCCCN)NC(=O)[C@H](Cc2c[nH]c3ccccc23)NC(=O)[C@H](CCCCN)NC(=O)[C@H]([C@@H](C)O)NC1=O` [SYN1554] (Ac-RYFCTKWKHGWCEEA-NH2; disulfide 4-12): the Kd at soluble human FcRn (setting [1]) is above 100 µM. Still for that read-out and setting: in the case of `CC(=O)N[C@@H](CCCNC(=N)N)C(=O)N[C@@H](Cc1ccc(O)cc1)C(=O)N[C@@H](Cc1ccccc1)C(=O)N[C@@H]1C(=O)N[C@@H]([C@@H](C)O)C(=O)N[C@@H](CCCCN)C(=O)N[C@@H](Cc2c[nH]c3ccccc23)C(=O)N[C@@H](CCCCN)C(=O)N[C@@H](Cc2c[nH]cn2)C(=O)NCC(=O)N[C@@H](Cc2c[nH]c3ccccc23)C(=O)N[C@H](C(=O)N[C@@H](CCC(=O)O)C(=O)N[C@@H](CCC(=O)O)C(=O)N[C@H](C(N)=O)C(C)C)CSSC1(C)C` [SYN1555] it was above 100 µM. On the same count and under the same terms, the result for `CC(=O)N[C@@H](CCCNC(=N)N)C(=O)N[C@@H](Cc1ccc(O)cc1)C(=O)N[C@@H](Cc1ccccc1)C(=O)N[C@H]1CSSC(C)(C)[C@@H](C(=O)N[C@@H](CCC(=O)O)C(=O)N[C@@H](CCC(=O)O)C(=O)N[C@H](C(N)=O)C(C)C)NC(=O)[C@H](Cc2c[nH]c3ccccc23)NC(=O)CNC(=O)[C@H](Cc2c[nH]cn2)NC(=O)[C@H](CCCCN)NC(=O)[C@H](Cc2c[nH]c3ccccc23)NC(=O)[C@H](CCCCN)NC(=O)[C@H]([C@@H](C)O)NC1=O` [SYN1556] reads above 100 µM; that for `CC(=O)N[C@@H](CCCNC(=N)N)C(=O)N[C@@H](Cc1ccc(O)cc1)C(=O)N[C@@H](Cc1ccccc1)C(=O)N[C@@H]1C(=O)N[C@@H]([C@@H](C)O)C(=O)N[C@@H](CCCCN)C(=O)N[C@@H](Cc2c[nH]c3ccccc23)C(=O)N[C@@H](CCCCN)C(=O)N[C@@H](Cc2c[nH]cn2)C(=O)NCC(=O)N[C@@H](Cc2c[nH]c3ccccc23)C(=O)N[C@H](C(=O)N[C@@H](CCC(=O)O)C(=O)N[C@@H](CCC(=O)O)C(=O)N[C@H](C(N)=O)C(C)C)C(C)(C)SSC1(C)C` [SYN1557, Ac-RYF-Pen-TKWKHGW-Pen-EEV-CONH2], above 100 µM; that for `CC(=O)N[C@@H](CCCNC(=N)N)C(=O)N[C@@H](Cc1ccc(O)cc1)C(=O)N[C@@H](Cc1ccccc1)C(=O)N[C@@H](C)C(=O)N[C@H](C(=O)N[C@@H](CCCCN)C(=O)N[C@@H](Cc1c[nH]c2ccccc12)C(=O)N[C@@H](CCCCN)C(=O)N[C@@H](Cc1c[nH]cn1)C(=O)NCC(=O)N[C@@H](Cc1c[nH]c2ccccc12)C(=O)N[C@@H](C)C(=O)N[C@@H](CCC(=O)O)C(=O)N[C@@H](CCC(=O)O)C(=O)N[C@H](C(N)=O)C(C)C)[C@@H](C)O` [SYN1558] (Ac-RYFATKWKHGWAEEV-NH2), above 100 µM. On the same count and under the same terms, the result for `CC(=O)N[C@@H](C)C(=O)NCC(=O)N[C@@H](CCCNC(=N)N)C(=O)N[C@@H](Cc1ccc(O)cc1)C(=O)N[C@@H](Cc1ccccc1)C(=O)N[C@H]1CSSC[C@@H](C(=O)N[C@@H](CCC(=O)O)C(=O)N[C@@H](CCC(=O)O)C(=O)N[C@H](C(=O)NCC(=O)N[C@H](C(=O)NCC(=O)NCC(N)=O)[C@@H](C)O)C(C)C)NC(=O)[C@H](Cc2c[nH]c3ccccc23)NC(=O)CNC(=O)[C@H](Cc2c[nH]cn2)NC(=O)[C@H](CCCCN)NC(=O)[C@H](Cc2c[nH]c3ccccc23)NC(=O)[C@H](CCCCN)NC(=O)[C@H]([C@@H](C)O)NC1=O` [SYN1708] reads 0.57 µM. “Ac-AGVMHCFWDEEFKCDQGGTGGGK-CONH2 (Ac-AGVMHCFWDEEFKCDQGGTGGGK-NH2; disulfide 6-14 (inferred)) [SYN514]”: the “competition with IgG or albumin” value with FcRn is recorded as “non-IgG, non-albumin competitive”.

The values are drawn from US10588935B2, “FC receptor (FcRn) binding peptides and uses thereof” (THE BRIGHAM AND WOMEN'S HOSPITAL, INC., priority 2013, dated 2020).
